Activity calls are given as the source filed them. No rule for the calls is given here.

The target of the assay is Ubiquitin-conjugating enzyme E2 N (Homo sapiens) (UniProt P61088). Kind of assay: NMR detection of UBE2N ligand binding – biophysical, purified protein (AID 1552). The note with it: NMR binding to purified UBE2N.
Sequence of Ubiquitin-conjugating enzyme E2 N (Homo sapiens) (P61088 whole entry, looked up): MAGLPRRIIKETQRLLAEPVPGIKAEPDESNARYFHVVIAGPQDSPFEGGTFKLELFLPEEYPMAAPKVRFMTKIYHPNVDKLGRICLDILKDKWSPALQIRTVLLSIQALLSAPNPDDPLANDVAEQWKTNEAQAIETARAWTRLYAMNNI
Regarding `COC(=O)CSc1nnc(-c2ccc(C(=O)O)cc2)o1`, the Kd – broadly, the concentration at which binding is half-saturated – was > 4 mM (inactive).

For `S=C(NCc1ccco1)NN1CCOCC1`, the Kd was > 4 mM (inactive).

Regarding `Cc1c(/C=N/O)cnn1C`, the Kd is > 4 mM (inactive).

As for `NCC1COc2ccccc2O1` (stereo not given), the Kd is > 4 mM (inactive).

Regarding `CC(C)=CCCC1(C)C=Cc2c(O)c3c(c(CC=C(C)C)c2O1)OC12C(=CC4CC1C(C)(C)OC2(C/C=C(/C)C(=O)O)C4=O)C3=O` (stereo not given), the Kd is > 4 mM (inactive).

For the molecule `C1CCN2C[C@@H]3C[C@H](CN4CCCC[C@@H]34)[C@H]2C1`, the Kd is > 4 mM (inactive).

With `O=S(=O)(c1ccc(F)c(Cl)c1)N1CCCC1`, the Kd was > 4 mM (inactive).

For `CC(C)(O)[C@@H]1[C@H]2OC(=O)[C@@H]1[C@]1(O)C[C@H]3O[C@]34C(=O)O[C@H]2[C@]14C`, the Kd is > 4 mM (inactive).

As to `COc1ccc(-c2ccc(SCC(N)=O)nn2)cc1`, the Kd is > 4 mM (inactive).

For the molecule `O=C(c1ccco1)N1C(=O)c2cccc3cccc1c23`, the Kd was > 4 mM (inactive).

As to `O=C(O)c1ccc2c(c1)OCO2`, the Kd is > 4 mM (inactive).

As to `O=C(/C=C/c1ccc(O)cc1)c1ccc(O)cc1O`, the Kd was > 4 mM (inactive).

Turning to `OCc1ccc2occc2c1`, the Kd is > 4 mM (inactive).

Regarding `CS(C)=C1C(=O)NC(=O)N(c2ccccc2)C1=O`, the Kd was > 4 mM (inactive).

Regarding `CN1CCC2(CC1)CC1CC3C=CC1(CN2)O3` (stereo not given), the Kd was > 4 mM (inactive).

As for `CC1=C(/C=C/C(C)=C/C=C/C(C)=C/CO)C(C)(C)CCC1`, the Kd is > 4 mM (inactive).

Consider `NS(=O)(=O)c1ccc(NC(=O)C2CC2)cc1`, for which the Kd is > 4 mM (inactive).

For the molecule `CC(=O)Oc1c(C)c(C)c2c(c1C)CCC(C)(CCCC(C)CCCC(C)CCCC(C)C)O2` (stereo not given), the Kd was > 4 mM (inactive).

Consider `Cc1ccc(-n2ncc(C#N)c2/N=C/N(C)C)cc1`, for which the Kd was > 4 mM (inactive).

Turning to `O=C1CS/C(=N/N=C/c2cccs2)N1`, the Kd is > 4 mM (inactive).

As for `CC(=O)Nc1cccc(NC(=O)c2ccco2)c1`, the Kd is > 4 mM (inactive).

Take `CC(C)(C)Cc1nc(-c2ccccn2)no1`: the Kd is > 4 mM (inactive).

`CCn1ccc(C(=O)Nc2nccs2)n1`: the Kd was > 4 mM (inactive).

For the molecule `O=C(NCc1cccs1)c1nn2cccnc2c1Cl`, the Kd was > 4 mM (inactive).

Take `c1ccc(CCc2nc(-c3cccnc3)no2)cc1`: the Kd is > 4 mM (inactive).

As for `COc1ccccc1CNc1nc2nc(C)cc(=O)n2[nH]1`, the Kd was > 4 mM (inactive).

For `Cc1noc(C)c1C(=O)N1CCc2ccccc2C1`, the Kd was > 4 mM (inactive).

As to `CN1CCCC1C(=O)O` (stereo not given), the Kd is > 4 mM (inactive).

Consider `N#Cc1cnn(-c2ccc(Cl)cc2)c1N`, for which the Kd was > 4 mM (inactive).

As for `COc1ccc(/C=C2/N=C(N)SC2=O)cc1`, the Kd was > 4 mM (inactive).

With `C=CCc1ccc(O)c(OC)c1`, the Kd is > 4 mM (inactive).

Take `Cc1nnc(Nc2cccnc2)[nH]c1=O`: the Kd is > 4 mM (inactive).

Regarding `O=C(O)C1=Cc2ccccc2OC1`, the Kd is > 4 mM (inactive).

Consider `O=C(O)c1ccc2sccc2c1`, for which the Kd is > 4 mM (inactive).

As to `CC(=O)Oc1ccc(/C=C/c2cc(OC(C)=O)cc(OC(C)=O)c2)cc1`, the Kd is > 4 mM (inactive).

With `O=c1[nH]cnc2c1nnn2Cc1ccccc1`, the Kd was > 4 mM (inactive).

In the case of `O=C(O)c1ccc(N2CCOCC2)nc1`, the Kd is > 4 mM (inactive).

As for `CN(C)S(=O)(=O)c1ccc(N2CCOCC2)nc1`, the Kd was > 4 mM (inactive).

Consider `COc1cc(/C=C/C(=O)O)cc(OC)c1OC`, for which the Kd was > 4 mM (inactive).

As to `CC1(C)Cc2nc3n[nH]c(N)c3cc2CO1`, the Kd is > 4 mM (inactive).

With `CCSc1nc(C)c(CC)c(C)c1C(N)=O`, the Kd is > 4 mM (inactive).

As for `CN1CCC(N(C)C2CCN(C)CC2)CC1`, the Kd was > 4 mM (inactive).

Take `NC(=O)c1ccsc1NC(=O)c1ccccc1[N+](=O)[O-]`: the Kd is > 4 mM (inactive).

Consider `COc1ccc(NC(=O)CCCC(=O)O)c(OC)c1`, for which the Kd was > 4 mM (inactive).

In the case of `Cc1nn(CC(=O)Nc2ccccc2)c(=O)c2ccccc12`, the Kd is > 4 mM (inactive).

For `CCOC(=O)CSCC(=O)Nc1nccs1`, the Kd was > 4 mM (inactive).

In the case of `COC(=O)Cc1cccc(OC)c1`, the Kd is > 4 mM (inactive).

With `O=S1(=O)C=CC(Nc2ccccc2)C1` (stereo not given), the Kd was > 4 mM (inactive).

Turning to `Cc1ccccc1CSc1nnc(C)n1N`, the Kd was > 4 mM (inactive).

For the molecule `c1cncc(-c2nnc(-c3cccnc3)nn2)c1`, the Kd is > 4 mM (inactive).

As for `O=C(O)c1cccc(O)c1O`, the Kd is > 4 mM (inactive).

On to `Cc1cc(C(=O)NC2=NCCS2)cs1`, for which the Kd is > 4 mM (inactive).

On to `CC(=O)Nc1ccc(S(=O)(=O)N(C)C)cc1`, for which the Kd is > 4 mM (inactive).

In the case of `Cn1c(=O)n(C)c2nc([N+](=O)[O-])c(Cl)cc21`, the Kd is > 4 mM (inactive).

Take `CN1CCN(C2CCN(Cc3ccccc3)CC2)CC1`: the Kd is > 4 mM (inactive).

Take `Nc1ccccc1N=C1CNC(=O)C1`: the Kd was > 4 mM (inactive).

In the case of `CC(=O)NC(=S)Nc1nc2ccccc2n1C(C)=O`, the Kd was > 4 mM (inactive).

For `CCOC(=O)c1c(C)nc2ncccn12`, the Kd was > 4 mM (inactive).

Turning to `NC1=NN(c2ccccc2)C(=O)C1`, the Kd was > 4 mM (inactive).

Consider `COc1cc(OC)c2c(=O)c(OC)c(-c3ccc(OC)c(OC)c3)oc2c1`, for which the Kd was > 4 mM (inactive).

Consider `Oc1cc(O)c2c(c1)O[C@H](c1ccc(O)c(O)c1)[C@H](O)C2`, for which the Kd was > 4 mM (inactive).

As to `CC[C@H]1CN2CCC1C[C@@H]2[C@@H](O)c1ccnc2ccc(OC)cc12` (stereo not given in full), the Kd is > 4 mM (inactive).

With `CCC(=O)NC(=S)Nc1ccc(O)cc1`, the Kd was > 4 mM (inactive).

As for `Cc1nn2c(nc1=O)SCC2(O)c1ccccc1` (stereo not given), the Kd is > 4 mM (inactive).

`O=c1nc(NCc2ccco2)sc2ncccc12`: the Kd is > 4 mM (inactive).

On to `O=C(O)c1csc(-c2cccs2)n1`, for which the Kd is > 4 mM (inactive).

As for `Oc1ccc(C(=S)N2CCCCC2)cc1Cl`, the Kd was > 4 mM (inactive).

Regarding `COc1ccc(-c2cc(=O)c3c(O)cc(O[C@@H]4O[C@H](CO[C@H]5O[C@H](C)[C@@H](O)[C@H](O)[C@@H]5O)[C@@H](O)[C@H](O)[C@H]4O)cc3o2)cc1O`, the Kd was > 4 mM (inactive).

For the molecule `O=C(NC1CSCC1O)c1ccccc1` (stereo not given), the Kd is > 4 mM (inactive).

Take `O=C(Nc1ccccc1)c1cccc(N2C(=O)CCC2=O)c1`: the Kd was > 4 mM (inactive).

Turning to `Fc1cccc(Cl)c1CN1CCNCC1`, the Kd is > 4 mM (inactive).

`O=c1[nH]cnc2nc[nH]c12`: the Kd is > 4 mM (inactive).

For the molecule `O=C(NCc1ccncc1)c1cccc(F)c1`, the Kd was > 4 mM (inactive).

With `CCn1nnc(NC(=O)c2ccccc2Br)n1`, the Kd was > 4 mM (inactive).

For `Cc1ccccc1C(=O)Nn1cnnc1`, the Kd was > 4 mM (inactive).

These data come from PubChem BioAssay AID1552 (Sanford-Burnham Center for Chemical Genomics, 2009).
